Test results reported in the supplement of paper PMC10307832.

Assays:
Assay in all cases: relative viability (nuclei count vs DMSO), 5 days (fraction); higher = more cells survive
[1] = compound: O=C(O)c1ccc(-c2c[nH]c3ncc(-c4ccccc4)cc23)cc1C1CCCC1
How it was run: (§1)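 Following overnight incubation at 37 °C, lung cancer cell lines in 1536-well plates were pinned with five library-drug doses (not always all listed) in √10 steps on vehicle-anchored plates. The cells then spent 5 days without medium change before a combined fix, permeabilisation and Hoechst stain, 4× imaging and MetaXpress nuclear counts. Viability is the treated-to-vehicle ratio of nuclei, taken as the median across plates. Only plates with control CV below 25% and at least one doubling passed.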

XAV939 = compound: Oc1nc(-c2ccc(C(F)(F)F)cc2)nc2c1CSCC2 [XAV939]
How it was run: as §1

AZD7762 = compound: NC(=O)Nc1cc(-c2cccc(F)c2)sc1C(=O)N[C@H]1CCCNC1 [AZD7762]
How it was run: as §1

Navitoclax = compound: CC1(C)CCC(c2ccc(Cl)cc2)=C(CN2CCN(c3ccc(C(=O)NS(=O)(=O)c4ccc(N[C@H](CCN5CCOCC5)CSc5ccccc5)c(S(=O)(=O)C(F)(F)F)c4)cc3)CC2)C1 [Navitoclax]
How it was run: as §1

C-75 = compound: CCCCCCCC[C@H]1[C@@H](C(=C)C(=O)O1)C(=O)O [C-75]
How it was run: as §1

Cell Line | relative viability ([1]; 0.04 µM) | relative viability ([1]; 0.1265 µM) | relative viability ([1]; 0.4 µM) | relative viability ([1]; 1.265 µM) | relative viability (XAV939; 0.08 µM) | relative viability (XAV939; 0.253 µM) | relative viability (XAV939; 0.8 µM) | relative viability (XAV939; 2.53 µM) | relative viability (AZD7762; 0.01 µM) | relative viability (AZD7762; 0.03162 µM) | relative viability (AZD7762; 0.1 µM) | relative viability (AZD7762; 0.3162 µM) | relative viability (AZD7762; 1 µM) | relative viability (Navitoclax; 0.005 µM) | relative viability (Navitoclax; 0.01581 µM) | relative viability (Navitoclax; 0.05 µM) | relative viability (Navitoclax; 0.1581 µM) | relative viability (Navitoclax; 0.5 µM) | relative viability (Navitoclax; 0.5 µM, anchor plate) | relative viability (C-75; 0.08 µM) | relative viability (C-75; 0.253 µM) | relative viability (C-75; 0.8 µM) | relative viability (C-75; 2.53 µM) | relative viability (C-75; 8 µM) | relative viability (AZD7762; 0.2 µM, anchor plate)
SK-LU-1 | 1.01 | 1.13 | 0.978 | 0.74 | 1.01 | 1.02 | 1.03 | 1.07 | 1.1 | 1.06 | 0.633 | 0.366 | 0.242 | 1.01 | 1.06 | 1.12 | 0.949 | 1.02 | 0.813 | 1 | 1.06 | 0.964 | 0.894 | 0.816 | –
SK-MES-1 | 1 | 1.05 | 0.943 | 0.755 | 1.07 | 0.906 | 0.919 | 0.858 | 1 | 1.03 | 1.05 | 0.818 | 0.372 | 1.01 | 1.17 | 1.11 | 0.95 | 1.04 | 1.25 | 1.01 | 1.02 | 0.937 | 0.93 | 0.943 | –
SW 900 | 0.846 | 0.915 | 0.777 | 0.741 | 0.954 | 0.832 | 0.928 | 0.677 | 0.876 | 0.957 | 1.17 | 0.891 | 0.475 | 0.841 | 1.06 | 0.667 | 0.742 | 0.925 | – | 0.786 | 1.11 | 0.719 | 0.695 | 0.867 | 0.68
SW 1573 | 0.981 | 1.03 | 0.89 | 0.706 | 1.1 | 0.857 | 0.908 | 0.81 | 1.13 | 1.05 | 1.08 | 0.96 | 0.607 | 1.03 | 1.11 | 1.06 | 0.901 | 0.956 | 0.973 | 0.981 | 1.05 | 0.946 | 0.758 | 0.855 | –
UMC-11 | 0.978 | 1.08 | 0.934 | 0.905 | 0.996 | 0.777 | 0.955 | 0.868 | 0.997 | 0.961 | 0.979 | 0.822 | 0.537 | 0.944 | 0.966 | 0.742 | 0.903 | 0.621 | 0.324 | 0.949 | 1.1 | 0.875 | 0.721 | 0.726 | –
